Reference: a compilation of properties of binary mixtures (doi:10.1021/acs.jced.9b00648)

Assay: xn = mol fraction of the nth substance listed
Details: 100 kPa

O=S(=O)([N-]S(=O)(=O)C(F)(F)F)C(F)(F)F.[Li+] + CC#N
electrical conductivity (298.15 K, x1 = 0.0207): 2.67 S/m | electrical conductivity (298.15 K, x1 = 0.0307): 3.11 S/m | electrical conductivity (298.15 K, x1 = 0.0405): 3.53 S/m | electrical conductivity (298.15 K, x1 = 0.0501): 3.93 S/m | electrical conductivity (298.15 K, x1 = 0.0596): 4.07 S/m | electrical conductivity (298.15 K, x1 = 0.0688): 3.93 S/m | electrical conductivity (298.15 K, x1 = 0.0779): 3.82 S/m | electrical conductivity (298.15 K, x1 = 0.0868): 3.65 S/m | electrical conductivity (303.15 K, x1 = 0.0405): 3.68 S/m | electrical conductivity (303.15 K, x1 = 0.0501): 4.1 S/m | electrical conductivity (303.15 K, x1 = 0.0596): 4.25 S/m | electrical conductivity (303.15 K, x1 = 0.0688): 4.12 S/m | electrical conductivity (303.15 K, x1 = 0.0779): 4.01 S/m | electrical conductivity (303.15 K, x1 = 0.0868): 3.84 S/m | electrical conductivity (308.15 K, x1 = 0.0207): 2.91 S/m | electrical conductivity (308.15 K, x1 = 0.0596): 4.45 S/m | electrical conductivity (308.15 K, x1 = 0.0688): 4.33 S/m | electrical conductivity (308.15 K, x1 = 0.0868): 4.05 S/m | electrical conductivity (313.15 K, x1 = 0.0307): 3.47 S/m | electrical conductivity (313.15 K, x1 = 0.0405): 4.01 S/m | electrical conductivity (313.15 K, x1 = 0.0501): 4.47 S/m | electrical conductivity (313.15 K, x1 = 0.0596): 4.63 S/m | electrical conductivity (313.15 K, x1 = 0.0688): 4.53 S/m | electrical conductivity (313.15 K, x1 = 0.0868): 4.26 S/m | electrical conductivity (318.15 K, x1 = 0.0207): 3.14 S/m | electrical conductivity (318.15 K, x1 = 0.0307): 3.58 S/m | electrical conductivity (318.15 K, x1 = 0.0596): 4.8 S/m | electrical conductivity (318.15 K, x1 = 0.0688): 4.7 S/m | electrical conductivity (318.15 K, x1 = 0.0779): 4.52 S/m | electrical conductivity (318.15 K, x1 = 0.0868): 4.45 S/m | electrical conductivity (323.15 K, x1 = 0.0207): 3.24 S/m | electrical conductivity (323.15 K, x1 = 0.0307): 3.7 S/m | electrical conductivity (323.15 K, x1 = 0.0405): 4.29 S/m | electrical conductivity (323.15 K, x1 = 0.0501): 4.81 S/m | electrical conductivity (323.15 K, x1 = 0.0688): 4.87 S/m | electrical conductivity (323.15 K, x1 = 0.0779): 4.74 S/m | electrical conductivity (323.15 K, x1 = 0.0868): 4.63 S/m | electrical conductivity (328.15 K, x1 = 0.0207): 3.34 S/m | electrical conductivity (328.15 K, x1 = 0.0307): 3.81 S/m | electrical conductivity (328.15 K, x1 = 0.0405): 4.43 S/m | electrical conductivity (328.15 K, x1 = 0.0688): 5.05 S/m | electrical conductivity (328.15 K, x1 = 0.0779): 4.95 S/m | electrical conductivity (328.15 K, x1 = 0.0868): 4.82 S/m | electrical conductivity (333.15 K, x1 = 0.0207): 3.47 S/m | electrical conductivity (333.15 K, x1 = 0.0307): 3.92 S/m | electrical conductivity (333.15 K, x1 = 0.0405): 4.57 S/m | electrical conductivity (333.15 K, x1 = 0.0501): 5.16 S/m | electrical conductivity (333.15 K, x1 = 0.0688): 5.24 S/m | electrical conductivity (333.15 K, x1 = 0.0779): 5.17 S/m | electrical conductivity (333.15 K, x1 = 0.0868): 4.99 S/m

C=C[n+]1ccn(CC(N)=O)c1.O=S(=O)([N-]S(=O)(=O)C(F)(F)F)C(F)(F)F + CC#N
electrical conductivity (298.15 K, x1 = 0.02): 2.52 S/m | electrical conductivity (298.15 K, x1 = 0.047): 3.16 S/m | viscosity (298.15 K, x1 = 0.05): 2.88 mPa·s | electrical conductivity (298.15 K, x1 = 0.07): 3.32 S/m | electrical conductivity (298.15 K, x1 = 0.08): 3.26 S/m | electrical conductivity (298.15 K, x1 = 0.1): 3.06 S/m | viscosity (298.15 K, x1 = 0.1): 10.3 mPa·s | electrical conductivity (298.15 K, x1 = 0.2): 1.6 S/m | viscosity (298.15 K, x1 = 0.201): 75 mPa·s | viscosity (298.15 K, x1 = 0.3026): 276 mPa·s | electrical conductivity (298.15 K, x1 = 0.393): 0.39 S/m | viscosity (298.15 K, x1 = 0.4011): 810 mPa·s | electrical conductivity (298.15 K, x1 = 1): 0.01 S/m | viscosity (298.15 K, x1 = 1): 281 mPa·s | electrical conductivity (303.15 K, x1 = 0.01): 1.34 S/m | viscosity (303.15 K, x1 = 0.01): 0.64 mPa·s | electrical conductivity (303.15 K, x1 = 0.02): 2.64 S/m | electrical conductivity (303.15 K, x1 = 0.047): 3.32 S/m | viscosity (303.15 K, x1 = 0.05): 2.84 mPa·s | electrical conductivity (303.15 K, x1 = 0.08): 3.47 S/m | viscosity (303.15 K, x1 = 0.3026): 247 mPa·s | electrical conductivity (303.15 K, x1 = 1): 0.02 S/m | viscosity (303.15 K, x1 = 1): 140 mPa·s | electrical conductivity (308.15 K, x1 = 0.047): 3.52 S/m | viscosity (308.15 K, x1 = 0.05): 2.71 mPa·s | electrical conductivity (308.15 K, x1 = 0.07): 3.74 S/m | electrical conductivity (308.15 K, x1 = 0.08): 3.72 S/m | electrical conductivity (308.15 K, x1 = 0.1): 3.53 S/m | viscosity (308.15 K, x1 = 0.1): 9.2 mPa·s | electrical conductivity (308.15 K, x1 = 0.2): 1.98 S/m | viscosity (308.15 K, x1 = 0.3026): 202 mPa·s | electrical conductivity (308.15 K, x1 = 0.393): 0.6 S/m | viscosity (308.15 K, x1 = 0.4011): 550 mPa·s | electrical conductivity (313.15 K, x1 = 0.01): 1.47 S/m | viscosity (313.15 K, x1 = 0.01): 0.57 mPa·s | electrical conductivity (313.15 K, x1 = 0.02): 2.9 S/m | electrical conductivity (313.15 K, x1 = 0.047): 3.7 S/m | viscosity (313.15 K, x1 = 0.05): 2.49 mPa·s | electrical conductivity (313.15 K, x1 = 0.07): 3.96 S/m | electrical conductivity (313.15 K, x1 = 0.08): 3.95 S/m | electrical conductivity (313.15 K, x1 = 0.2): 2.19 S/m | viscosity (313.15 K, x1 = 0.201): 51 mPa·s | viscosity (313.15 K, x1 = 0.3026): 163 mPa·s | electrical conductivity (313.15 K, x1 = 0.393): 0.73 S/m | electrical conductivity (313.15 K, x1 = 1): 0.05 S/m | viscosity (313.15 K, x1 = 1): 35.3 mPa·s | electrical conductivity (318.15 K, x1 = 0.02): 3.01 S/m | viscosity (318.15 K, x1 = 0.05): 2.39 mPa·s | electrical conductivity (318.15 K, x1 = 0.07): 4.16 S/m | electrical conductivity (318.15 K, x1 = 0.08): 4.17 S/m | electrical conductivity (318.15 K, x1 = 0.1): 4.02 S/m | viscosity (318.15 K, x1 = 0.1): 7.7 mPa·s | viscosity (318.15 K, x1 = 0.201): 45.9 mPa·s | viscosity (318.15 K, x1 = 0.3026): 142 mPa·s | electrical conductivity (318.15 K, x1 = 0.393): 0.86 S/m | viscosity (318.15 K, x1 = 0.4011): 352 mPa·s | electrical conductivity (318.15 K, x1 = 1): 0.07 S/m | viscosity (318.15 K, x1 = 1): 19.8 mPa·s | electrical conductivity (323.15 K, x1 = 0.01): 1.58 S/m | viscosity (323.15 K, x1 = 0.01): 0.52 mPa·s | electrical conductivity (323.15 K, x1 = 0.02): 3.13 S/m | electrical conductivity (323.15 K, x1 = 0.047): 4.03 S/m | viscosity (323.15 K, x1 = 0.05): 2.26 mPa·s | electrical conductivity (323.15 K, x1 = 0.07): 4.36 S/m | electrical conductivity (323.15 K, x1 = 0.1): 4.25 S/m | viscosity (323.15 K, x1 = 0.1): 7 mPa·s | viscosity (323.15 K, x1 = 0.201): 40.2 mPa·s | electrical conductivity (323.15 K, x1 = 0.393): 1 S/m | viscosity (323.15 K, x1 = 0.4011): 288 mPa·s | electrical conductivity (328.15 K, x1 = 0.01): 1.65 S/m | viscosity (328.15 K, x1 = 0.01): 0.48 mPa·s | electrical conductivity (328.15 K, x1 = 0.02): 3.25 S/m | electrical conductivity (328.15 K, x1 = 0.047): 4.19 S/m | viscosity (328.15 K, x1 = 0.05): 2.17 mPa·s | electrical conductivity (328.15 K, x1 = 0.08): 4.61 S/m | electrical conductivity (328.15 K, x1 = 0.2): 2.8 S/m | viscosity (328.15 K, x1 = 0.201): 36.8 mPa·s | viscosity (328.15 K, x1 = 0.3026): 105 mPa·s | electrical conductivity (328.15 K, x1 = 0.393): 1.16 S/m | electrical conductivity (333.15 K, x1 = 0.01): 1.69 S/m | viscosity (333.15 K, x1 = 0.01): 0.47 mPa·s | electrical conductivity (333.15 K, x1 = 0.02): 3.35 S/m | viscosity (333.15 K, x1 = 0.05): 2.01 mPa·s | electrical conductivity (333.15 K, x1 = 0.07): 4.79 S/m | electrical conductivity (333.15 K, x1 = 0.08): 4.77 S/m | electrical conductivity (333.15 K, x1 = 0.1): 4.72 S/m | viscosity (333.15 K, x1 = 0.1): 6.1 mPa·s | electrical conductivity (333.15 K, x1 = 0.2): 3 S/m | viscosity (333.15 K, x1 = 0.3026): 90 mPa·s | electrical conductivity (333.15 K, x1 = 0.393): 1.33 S/m | viscosity (333.15 K, x1 = 0.4011): 193 mPa·s | electrical conductivity (333.15 K, x1 = 1): 0.2 S/m | viscosity (333.15 K, x1 = 1): 6.2 mPa·s

CC#N + C=C[n+]1ccn(CC(N)=O)c1.O=S(=O)([N-]S(=O)(=O)C(F)(F)F)C(F)(F)F
viscosity (298.15 K, x2 = 0): 0.344 mPa·s | viscosity (303.15 K, x2 = 0): 0.324 mPa·s | viscosity (308.15 K, x2 = 0): 0.308 mPa·s | viscosity (313.15 K, x2 = 0): 0.293 mPa·s | viscosity (318.15 K, x2 = 0): 0.277 mPa·s | viscosity (328.15 K, x2 = 0): 0.246 mPa·s | viscosity (333.15 K, x2 = 0): 0.219 mPa·s
